Experimental data taken from the CheMixHub viscosity set.

Test: xn = mol fraction of the nth substance listed

CCCCCCCO + CCCCO
viscosity [mPa·s], 101 kPa
Settings | 298.15 K | 308.15 K | 318.15 K
x2 = 0.08 | 5.586 | 4.11 | 3.063
x2 = 0.15 | 5.398 | 3.965 | 2.971
x2 = 0.22 | 5.211 | 3.829 | 2.883
x2 = 0.28 | 5.027 | 3.7 | 2.798
x2 = 0.34 | 4.844 | 3.576 | 2.714
x2 = 0.4 | 4.664 | 3.456 | 2.632
x2 = 0.46 | 4.487 | 3.34 | 2.551
x2 = 0.51 | 4.313 | 3.226 | 2.47
x2 = 0.56 | 4.142 | 3.115 | 2.391
x2 = 0.61 | 3.976 | 3.004 | 2.312
x2 = 0.66 | 3.813 | 2.894 | 2.233
x2 = 0.7 | 3.654 | 2.785 | 2.155
x2 = 0.74 | 3.499 | 2.677 | 2.077
x2 = 0.79 | 3.348 | 2.57 | 2
x2 = 0.82 | 3.201 | 2.463 | 1.923
x2 = 0.86 | 3.058 | 2.359 | 1.847
x2 = 0.9 | 2.919 | 2.256 | 1.772
x2 = 0.93 | 2.783 | 2.157 | 1.698
x2 = 0.97 | 2.652 | 2.061 | 1.627

CCN(CC)S(C)(=O)=O + CCCCO
303.15 K, 101.33 kPa
Settings | viscosity [mPa·s]
x1 = 0.0631 | 20450
x1 = 0.1404 | 19420
x1 = 0.2197 | 19180
x1 = 0.2937 | 19420
x1 = 0.3626 | 19850
x1 = 0.4515 | 20780
x1 = 0.5227 | 21750
x1 = 0.6053 | 23400
x1 = 0.6908 | 25500
x1 = 0.7579 | 27420
x1 = 0.8437 | 30890
x1 = 0.9281 | 35520

CS(C)=O + CCCCO
viscosity [mPa·s]
Settings | 298.15 K | 303.15 K
101 kPa, x1 = 0.09862 | – | 1.847
101 kPa, x1 = 0.1941 | – | 1.698
101 kPa, x1 = 0.2035 | – | 1.685
101 kPa, x1 = 0.3043 | – | 1.581
101 kPa, x1 = 0.3691 | – | 1.528
101 kPa, x1 = 0.3883 | – | 1.55
101 kPa, x1 = 0.4941 | – | 1.534
101 kPa, x1 = 0.5276 | – | 1.497
101 kPa, x1 = 0.5875 | – | 1.564
101 kPa, x1 = 0.6718 | – | 1.506
101 kPa, x1 = 0.6844 | – | 1.605
101 kPa, x1 = 0.803 | – | 1.636
101 kPa, x1 = 0.8037 | – | 1.543
101 kPa, x1 = 0.9005 | – | 1.682
101 kPa, x1 = 0.9297 | – | 1.672
101.3 kPa, x1 = 0.0944 | 2.225 | 1.97
101.3 kPa, x1 = 0.192 | 2.017 | 1.848
101.3 kPa, x1 = 0.2893 | 1.88 | 1.671
101.3 kPa, x1 = 0.3876 | 1.78 | 1.604
101.3 kPa, x1 = 0.4688 | 1.773 | 1.59
101.3 kPa, x1 = 0.5874 | 1.77 | 1.599
101.3 kPa, x1 = 0.6887 | 1.796 | 1.625
101.3 kPa, x1 = 0.7915 | 1.859 | 1.668
101.3 kPa, x1 = 0.8839 | 1.905 | 1.723

O=C(O)C=Cc1ccccc1 + CCCCO
viscosity [mPa·s]
Settings | x1 = 0.0728 | x1 = 0.0959 | x1 = 0.114
308.15 K, 101.33 kPa | 2.48 | – | –
313.15 K, 101.33 kPa | 2.19 | – | –
318.15 K, 101 kPa | 1.932 | 2.073 | 2.18
318.15 K, 101.33 kPa | 1.932 | 2.073 | –
323.15 K, 101.33 kPa | 1.712 | 1.838 | –

CCCCC + CCCO
298.15 K, 101.33 kPa
Settings | viscosity [mPa·s]
x2 = 0.0291 | 0.242
x2 = 0.0777 | 0.256
x2 = 0.1952 | 0.29
x2 = 0.3332 | 0.357
x2 = 0.403 | 0.41
x2 = 0.4771 | 0.484
x2 = 0.6076 | 0.666
x2 = 0.7373 | 0.949
x2 = 0.8545 | 1.333
x2 = 0.9586 | 1.778

CCCCCCCCn1cc[n+](C)c1.O=[N+]([O-])[O-] + CCCO
101 kPa
Settings | viscosity [mPa·s]
293.15 K, x2 = 0.107 | 510.9
298.15 K, x2 = 0.258 | 191.5

CCCCCCCO + CCCO
viscosity [mPa·s], 101 kPa
Settings | 298.15 K | 308.15 K | 318.15 K
x2 = 0.05 | 5.555 | 4.09 | 3.044
x2 = 0.1 | 5.333 | 3.923 | 2.935
x2 = 0.15 | 5.11 | 3.762 | 2.83
x2 = 0.2 | 4.888 | 3.607 | 2.728
x2 = 0.25 | 4.667 | 3.456 | 2.627
x2 = 0.3 | 4.449 | 3.309 | 2.528
x2 = 0.35 | 4.235 | 3.166 | 2.429
x2 = 0.4 | 4.026 | 3.027 | 2.331
x2 = 0.45 | 3.822 | 2.89 | 2.234
x2 = 0.5 | 3.623 | 2.756 | 2.136
x2 = 0.55 | 3.431 | 2.624 | 2.039
x2 = 0.6 | 3.243 | 2.494 | 1.942
x2 = 0.65 | 3.061 | 2.364 | 1.845
x2 = 0.7 | 2.882 | 2.236 | 1.748
x2 = 0.75 | 2.707 | 2.107 | 1.654
x2 = 0.8 | 2.534 | 1.979 | 1.56
x2 = 0.85 | 2.362 | 1.849 | 1.47
x2 = 0.9 | 2.189 | 1.719 | 1.382
x2 = 0.95 | 2.013 | 1.587 | 1.299

CCN(CC)S(C)(=O)=O + CCCO
303.15 K, 101.33 kPa
Settings | viscosity [mPa·s]
x1 = 0.0661 | 16100
x1 = 0.1423 | 15830
x1 = 0.2148 | 16120
x1 = 0.3057 | 16930
x1 = 0.3821 | 17930
x1 = 0.4421 | 18840
x1 = 0.5219 | 20390
x1 = 0.5944 | 22040
x1 = 0.685 | 24610
x1 = 0.7587 | 27160
x1 = 0.8085 | 29250
x1 = 0.8907 | 33340

CS(C)=O + CCCO
Settings | viscosity [mPa·s]
298.15 K, 101.3 kPa, x1 = 0.0789 | 1.75
298.15 K, 101.3 kPa, x1 = 0.1613 | 1.651
298.15 K, 101.3 kPa, x1 = 0.339 | 1.535
298.15 K, 101.3 kPa, x1 = 0.434 | 1.541
298.15 K, 101.3 kPa, x1 = 0.5363 | 1.562
298.15 K, 101.3 kPa, x1 = 0.6421 | 1.641
298.15 K, 101.3 kPa, x1 = 0.755 | 1.736
298.15 K, 101.3 kPa, x1 = 0.8737 | 1.845
298.15 K, 101.31 kPa, x1 = 0.1053 | 1.666
298.15 K, 101.31 kPa, x1 = 0.2078 | 1.55
298.15 K, 101.31 kPa, x1 = 0.413 | 1.496
298.15 K, 101.31 kPa, x1 = 0.5099 | 1.527
298.15 K, 101.31 kPa, x1 = 0.7025 | 1.664
298.15 K, 101.31 kPa, x1 = 0.7984 | 1.746
298.15 K, 101.31 kPa, x1 = 0.9011 | 1.871
303.15 K, 101 kPa, x1 = 0.5 | 1.425
303.15 K, 101.3 kPa, x1 = 0.0789 | 1.63
303.15 K, 101.3 kPa, x1 = 0.1613 | 1.54
303.15 K, 101.3 kPa, x1 = 0.2478 | 1.452
303.15 K, 101.3 kPa, x1 = 0.5363 | 1.436
303.15 K, 101.3 kPa, x1 = 0.6421 | 1.495
303.15 K, 101.3 kPa, x1 = 0.755 | 1.57
303.15 K, 101.3 kPa, x1 = 0.8737 | 1.676
308.15 K, 101.31 kPa, x1 = 0.2973 | 1.249
308.15 K, 101.31 kPa, x1 = 0.5099 | 1.29
308.15 K, 101.31 kPa, x1 = 0.5989 | 1.329
308.15 K, 101.31 kPa, x1 = 0.7984 | 1.465
308.15 K, 101.31 kPa, x1 = 0.9011 | 1.56
313.15 K, 101 kPa, x1 = 0.7998 | 1.335
318.15 K, 101.31 kPa, x1 = 0.1053 | 1.116
318.15 K, 101.31 kPa, x1 = 0.2078 | 1.064
318.15 K, 101.31 kPa, x1 = 0.2973 | 1.048
318.15 K, 101.31 kPa, x1 = 0.413 | 1.064
318.15 K, 101.31 kPa, x1 = 0.5099 | 1.093
318.15 K, 101.31 kPa, x1 = 0.5989 | 1.129
318.15 K, 101.31 kPa, x1 = 0.7025 | 1.189
318.15 K, 101.31 kPa, x1 = 0.7984 | 1.239
318.15 K, 101.31 kPa, x1 = 0.9011 | 1.314

O=C(O)C=Cc1ccccc1 + CCCO
viscosity [mPa·s]
Settings | 308.15 K | 313.15 K | 318.15 K | 323.15 K
101 kPa, x1 = 0.0687 | 2.066 | – | – | –
101 kPa, x1 = 0.0901 | 2.224 | – | – | –
101 kPa, x1 = 0.109 | 2.44 | – | – | –
101.33 kPa, x1 = 0.0687 | 2.066 | 1.836 | 1.629 | 1.452
101.33 kPa, x1 = 0.109 | 2.44 | 2.158 | 1.888 | 1.683
